{"source": "patent US20070167412A1", "about": "“HALOCOMBSTATINS AND METHODS OF SYNTHESIS THEREOF” (ARIZONA BOARD OF REGENTS, priority 2003, published 2007)", "key": {"Breast MCF-7": {"test_system": "Breast MCF-7", "assay": "human cancer cell growth inhibition, sulforhodamine B assay", "format": "cell-based", "conditions": "Homo sapiens, MCF7; Table I; 48 hours; read-out: Human cancer cell line inhibition (GI50) Breast adn MCF-7", "summary_of_the_method": "(§1)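 NCI sulforhodamine B protocol: cells exposed to compounds for 48 h, then fixed with trichloroacetic acid, stained with sulforhodamine B and read on a microplate reader.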"}, "CNS SF268": {"test_system": "CNS SF268", "assay": "human cancer cell growth inhibition, sulforhodamine B assay", "format": "cell-based", "conditions": "Homo sapiens, SF-268; Table I; 48 hours; read-out: Human cancer cell line inhibition (GI50) CNS SF268", "summary_of_the_method": "as §1"}, "Colon KM20L2": {"test_system": "Colon KM20L2", "assay": "human cancer cell growth inhibition, sulforhodamine B assay", "format": "cell-based", "conditions": "Homo sapiens, KM-20L2; Table I; 48 hours; read-out: Human cancer cell line inhibition (GI50) Colon KM20L2", "summary_of_the_method": "as §1"}, "Lung-NSC NCI-H460": {"test_system": "Lung-NSC NCI-H460", "assay": "human cancer cell growth inhibition, sulforhodamine B assay", "format": "cell-based", "conditions": "Homo sapiens, NCI-H460; Table I; 48 hours; read-out: Human cancer cell line inhibition (GI50) Lung-NSC NCI-H460", "summary_of_the_method": "as §1"}, "Pancreas BXPC-3": {"test_system": "Pancreas BXPC-3", "assay": "human cancer cell growth inhibition, sulforhodamine B assay", "format": "cell-based", "conditions": "Homo sapiens, BXPC-3; Table I; 48 hours; read-out: Human cancer cell line inhibition (GI50) Pancreas-a BXPC-3", "summary_of_the_method": "as §1"}, "Prostate DU-145": {"test_system": "Prostate DU-145", "assay": "human cancer cell growth inhibition, sulforhodamine B assay", "format": "cell-based", "conditions": "Homo sapiens, DU-145; Table I; 48 hours; read-out: Human cancer cell line inhibition (GI50) Prostate DU-145", "summary_of_the_method": "as §1"}, "purified tubulin": {"test_system": "T1, purified tubulin", "T1 construct": "other: 10 μM tubulin, GTP 0.4 mM, 30° C., extent after 20 minutes", "assay": "inhibition of tubulin polymerization (turbidimetry)", "format": "biochemical", "conditions": "10 μM tubulin, GTP 0.4 mM, 30° C., extent after 20 minutes; read-out: Inhibition of polymerization IC50 ± S.D.", "experimental": "(§2) Tubulin polymerization was evaluated by turbidimetry at 350 nm using Beckman DU7400/7500 spectrophotometers as described in detail elsewhere. […] Varying concentrations of drug were preincubated with 10 μM:M ([…]) purified tubulin (See Hamel, E., et al., Separation of Active Tubulin and Microtubule-associated Proteins by Ultracentrifiigation and Isolation of a Component Causing the Formation of Microtubule Bundles, Biochemistry 1984, 23, 4173-4184). Samples were chilled on ice, GTP (0.4 mM) was added, and polymerization was followed at 30° C. The parameter measured was extent of the reaction after 20 minutes. Coichicine binding was measured as described in detail previously. Reaction mixtures contained 1.0 μM :M tubulin, 5.0:M, [^3H]colchicine (from Dupont), and inhibitor at 1.0 μM:M. Incubation was for 10 minutes at 37° C.\nTubulin Evaluations: Tubulin polymerization was evaluated by turbidimetry at […] using Beckman DU7400/7500 spectrophotometers as known to one of skill in the art. Varying concentrations of the compound were preincubated with 10 μM. […]"}, "tubulin": {"test_system": "tubulin", "assay": "inhibition of [3H]colchicine binding to tubulin", "conditions": "1.0 μM tubulin, 5.0 μM [3H]colchicine, inhibitor at 1.0 μM, 10 minutes at 37° C.", "experimental": "as §2"}, "KAT-4": {"test_system": "KAT-4", "assay": "human anaplastic thyroid carcinoma cell line inhibition", "format": "cell-based", "conditions": "Homo sapiens, KAT-4", "experimental": "(§3) Inhibition of human cancer cell growth was assessed using the National Cancer Institute's standard sulforhodamine B assay. After 48 hours, the plates were fixed with trichloracetic acid, stained with sulforhodamine B and read with an automated microplate reader. A growth inhibition of 50% (GI50 or the drug concentration causing a 50% reduction in the net protein increase) was calculated from optical density data with Inmunosoft software. Inhibition of the mouse leukemia P388 cells was assessed in a 10% horse serum/Fisher medium soution for 24 hours, followed by a 48 hour incubation with serial dilutions of the compounds. Cell growth inhibition (ED50) was then calculated using a Z1 Becleman/Coulter particle counter."}, "SW1736": {"test_system": "SW1736", "assay": "human anaplastic thyroid carcinoma cell line inhibition", "format": "cell-based", "conditions": "Homo sapiens, SW-1736", "experimental": "as §3"}, "[1]": {"test_system": "human umbilical vein endothelial cells (HUVEC)", "assay": "HUVEC growth inhibition, sulforhodamine B assay", "format": "cell-based", "conditions": "HUVEC", "experimental": "(§4) In vitro Matrigel antiangiogenesis assays were implemented according to the Developmental Therapeutics Program NCI/NIH protocols known to one of skill in the art. Matrigel, a basement membrane matrix, was obtained from BD Biosciences. Growth inhibition and cord formation assays were Conducted using human umbilical vein endothelial cells obtained from GlycoTeCh. HUVEC cells were grown in EGM-2 medium.\nThe standard sulforhodamine B assay (see Cancer Cell Line Procedures above) was used to evaluate results using HUVEC cells. IC50 or ED50 (drug concentration causing 50% inhibition) was calculated from the plotted data."}, "[2]": {"test_system": "human umbilical vein endothelial cells (HUVEC)", "assay": "Matrigel cord formation assay", "format": "cell-based", "parameters": "key to Lengths of Cords: −: No Cords; +: Small; ++: ˜50% of Control; +++: Same as Control", "conditions": "24 hours, compared to untreated controls", "summary_of_the_method": "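HUVEC grown in EGM-2, seeded at 2×10^5 cells/ml onto polymerized Matrigel with test compounds. After 24 hours, cord length and junction number imaged and measured relative to untreated controls.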"}, "[3]": {"test_system": "human umbilical vein endothelial cells (HUVEC)", "assay": "Matrigel cord formation assay", "format": "cell-based", "parameters": "key: −: No Junctions; +: Few; ++: ˜50% of Control; +++: Same as Control", "conditions": "24 hours, compared to untreated controls", "experimental": "as §4\nAn aliquot of sixty microliters was placed in each well of an ice-cold 96-well plate. The plates were then left for 15 minutes at room temperature, then incubated for 30 minutes at 37° C. to permit the matrigel to polymerize. Meanwhile, HUVEC cells were harvested and diluted to a concentration of 2×10^5 cells/ml. A solution of 100 μL containing the compounds to be tested was added next. After 24 hours incubation, pictures were taken for each concentration using an inverted Nikon Diaphot microscope and D100 digital camera. Drug effect was assessed, compared to untreated controls, by measuring the length of cords formed and number ofjunctions."}}}
{"compound": "COc1ccc(/C=C\\c2cc(I)c(OC)c(OC)c2)cc1O", "note": "[Compound 14a, 3-Iodo-4,4′,5-trimethoxy-3′-hydroxy-z-stilbene]", "values": [{"measurement": "GI50", "setting": "Breast MCF-7", "result": 0.22, "unit": "ng/mL"}, {"measurement": "GI50", "setting": "CNS SF268", "result": 0.35, "unit": "ng/mL"}, {"measurement": "GI50", "setting": "Colon KM20L2", "result": 150, "unit": "ng/mL"}, {"measurement": "GI50", "setting": "Lung-NSC NCI-H460", "result": 0.19, "unit": "ng/mL"}, {"measurement": "GI50", "setting": "Pancreas BXPC-3", "result": 110, "unit": "ng/mL"}, {"measurement": "GI50", "setting": "Prostate DU-145", "result": 0.52, "unit": "ng/mL"}, {"measurement": "IC50", "setting": "purified tubulin", "result": "1600 ± 200", "unit": "nM"}, {"measurement": "Inhibition of colchicine binding % inhibition ± S.D.", "setting": "tubulin", "result": "84 ± 7", "unit": "%"}, {"measurement": "GI50", "setting": "KAT-4", "result": "89 to 140", "unit": "ng/mL"}, {"measurement": "GI50", "setting": "SW1736", "result": 2200, "unit": "ng/mL"}, {"measurement": "Relative % Growth", "setting": "[1]; 0.00001 μg/ml", "result": 90, "unit": "%"}, {"measurement": "Relative % Growth", "setting": "[1]; 0.0001 μg/ml", "result": 18, "unit": "%"}, {"measurement": "Relative % Growth", "setting": "[1]; 0.001 μg/ml", "result": 14, "unit": "%"}, {"measurement": "Relative % Growth", "setting": "[1]; 0.01 μg/ml", "result": 14, "unit": "%"}, {"measurement": "GI50", "setting": "[1]; Homo sapiens, Table V, read-out: Human Umbilical Vein Endothelial Cell (HUVEC) Inhibition Values (GI50)", "result": 0.04, "unit": "ng/mL"}, {"measurement": "Lengths of Cords", "setting": "[2]; 0.001 μg/ml", "result": "+"}, {"measurement": "Lengths of Cords", "setting": "[2]; 0.01 μg/ml", "result": "−"}, {"measurement": "Number of junctions", "setting": "[3]; 0.001 μg/ml", "result": "+"}, {"measurement": "Number of junctions", "setting": "[3]; 0.01 μg/ml", "result": "−"}]}
